How the values were obtained:
[1] = target: T1, Human serum albumin (HSA) glycation by fructose (AGE-HSA) (Homo sapiens, UniProt P02768); assay: In-vitro antiglycation activity against HSA glycation (fluorescence-based antiglycation assay); assay type: biochemical
T1 construct: purchased Sigma Aldrich, St. Louis, Mo., USA
Procedure: Methodology: Human serum albumin (HSA) free from essential fatty acids and rutin were obtained from Sigma Aldrich, St. Louis, Mo., USA. D-fructose, sodium azide (NaN3) and dimethyl sulfoxide (DMSO) were acquired from Merck, Darmstadt, Germany. All solutions were prepared in sterile environment in deionized water at room temperature.
Assay Method: The assay was performed according the protocol of (Sattarahmady N, et al., 2007) with a little modification. […] Each sample solution (200 μL, final reaction volume) in triplicate loaded a 96-wll black fluorescence plate and was incubated for a week at 37° C. in an incubator.

[2] = MTT-based cytotoxicity assay; conditions: mouse, 3T3 mouse fibroblast cells, 3T3 cell-line, read-out: Cytotoxicity % Inhibition
Description: Many studies have highlighted the contribution of AGEs in disease states and primarily investigated their deleterious effects and their possible mechanism of actions. Therefore, there is a need of synthesis and investigation of novel antiglycation agents, which are devoid of any adverse effects, may present a therapeutic approach for the delaying and treatment of premature aging and vascular abnormalities in diabetic patients. In the current study, we explored the novel antiglycation agents (1-18), which are potent inhibitors against the glycation process, and belong to anthranilic acid derivatives. The inhibitors were identified by using high throughput screening method, fluorescence-based antiglycation assay (see Table-1). The cytotoxicity studies were performed against mouse fibroblast cell-line (3T3 Cell-line) by employing MTT-based cytotoxicity assay. The mechanistic studies were also conducted to evaluate the effect of novel antiglycation inhibitors on AGEs-induced intracellular reactive oxygen species generation (ROS) and associated impaired proliferation in rat hepatocytes via dichlorofluorescin diacetate (DCFH-DA) and MTT-based cytotoxicity assay, respectively. Previously, these novel antiglycation inhibitors were known for anticancer and anti-inflammatory activities (Congiu C, et al., 2005).

[3] = tested on: rat hepatocytes (CC1-Cell line); assay: AGE-mediated reduced growth of rat hepatocytes, MTT assay; assay type: cell-based; conditions: for Absorbance (Average): 540 nm
Description: Methodology: Normal, rat hepatocytes (CC1-Cell line) was purchased from ATCC, Manassas, Va., USA. MEM (Minimum Essential Medium) with L-glutamine, trypsin-EDTA, sodium bicarbonate and penicillin-streptomycin were obtained from Sigma, St. Louis, Mo., USA. 96-well tissue culture treated, sterile, round bottom plates were acquired from Thermo Fisher Scientific, Waltham, Mass., USA.
All the treatment with the AGEs and the test compound were done in SFM (serum free medium), and Triton X-100 treated hepatocytes were used as a blank, while untreated normal cells were used as a control.
Determination of Cellular Proliferation: At the end of the incubation, the sample solution was removed and MTT-dye ((2 mg/mL, 50 μL) was added to each well. The final reaction volume (200 μL) was reconstituted by MEM (serum free-Minimum essential media). The plate was incubated for 4 hours at 37° C. in 5% CO2 containing incubator. Following incubation, the serum free medium was removed and the crystals were dissolved by adding DMSO (100 μL) in each well.
Absorbance Detection: The absorbance of the colored solution was measured at 540 nm by Spectra Max Spectrophotometer, Applied Biosystems, CA, USA.
Where, • Test Compound=Novel anthranilic acid derivative • Blank=Hepatocytes treated with Triton X-100 • Control=Untreated normal rat hepatocytes

[4] = tested on: rat hepatocytes (CC1-Cell line); assay: Fructose-derived AGE-mediated intracellular ROS generation, DCFH-DA technique; assay type: cell-based
Procedure: Methodology: DCFH-DA (Dichlorofluorescin diacetate), H2O2 (Hydrogen peroxide), DMSO (Dimethyl sulfoxide) and PBS (Phosphate buffer saline) were obtained from Sigma, St. Louis, Mo., USA. 96-well black fluorescence plates (Tissue culture treated) were purchased from Thermo Fisher Scientific, Waltham, Mass., USA.
Assay Method: Briefly, rat hepatocytes (CC1-Cell line, 6×10^4 cells/mL) were loaded on a black fluorescence 96-well tissue culture treated plate for 24 hours at 37° C. in an incubator, containing 5% CO2. The cells were serum starved for another 24 hours by adding serum free medium-MEM (minimum essential medium) prior to treatment with fructose-derived AGE and the test compounds, anthranilic acid derivatives. Initially the cells were treated with non fluorescent probe, DCFH-DA (10 μM) in the dark for 45 mins. Following incubation the cells were washed twice with 1×PBS and were treated with different concentrations of the AGEs, such as 0, 50, 100, and 200 μg/mL, to evaluate the AGEs influence on the generation of intracellular ROS in a concentration dependent manner. The cells were then treated with the test compounds (novel anthranilic acid derivatives) at various concentrations 24, 33, and 49 μM, co-incubated with the AGE (200 μg/mL) for 24 hours at 37° C. At the end of the incubation, just before 1 hour, the cells were incubated with H2O2 (0.5%) as a control.
Fluorescence Detection: The intensity of green fluorescence, which is emitted upon the oxidation of the probe in the presence of intracellular ROS, is measured at the excitation and emission wavelength of 490 nm and 520 nm, respectively, by Spectra Max Spectrophotometer, Applied Biosystems, CA, USA.
Where, • Test compound=anthranilic acid derivative • Blank=Untreated normal rat hepatocytes • Control=Hepatocytes treated with 0.5% H2O2

[5] = compound 24 μM, co-incubated with AGEs 200 μg/mL, 24 hours
[6] = compound 33 μM, co-incubated with AGEs 200 μg/mL, 24 hours
[7] = compound 49 μM, co-incubated with AGEs 200 μg/mL, 24 hours

T1 sequence (P02768 25-609): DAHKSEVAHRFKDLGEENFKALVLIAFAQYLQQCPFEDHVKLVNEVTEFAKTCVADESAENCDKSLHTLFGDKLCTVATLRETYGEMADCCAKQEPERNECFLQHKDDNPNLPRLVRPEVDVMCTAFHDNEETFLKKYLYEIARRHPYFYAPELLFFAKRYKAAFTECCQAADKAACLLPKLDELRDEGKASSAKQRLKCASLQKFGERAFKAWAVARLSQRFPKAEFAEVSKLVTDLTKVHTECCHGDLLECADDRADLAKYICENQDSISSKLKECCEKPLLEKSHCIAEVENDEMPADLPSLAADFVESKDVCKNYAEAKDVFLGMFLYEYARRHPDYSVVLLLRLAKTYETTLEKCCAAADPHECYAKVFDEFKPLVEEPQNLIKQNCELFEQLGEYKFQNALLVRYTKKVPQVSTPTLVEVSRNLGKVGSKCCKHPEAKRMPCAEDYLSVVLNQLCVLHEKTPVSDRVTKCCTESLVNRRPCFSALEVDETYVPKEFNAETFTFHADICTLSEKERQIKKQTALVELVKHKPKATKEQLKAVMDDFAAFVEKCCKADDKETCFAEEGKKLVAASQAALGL

O=C(O)c1ccccc1Nc1ccc([N+](=O)[O-])cc1[N+](=O)[O-] [Compound 1, 2-(2,4-Dinitroanilino)benzoic acid]
inhibition at 1000 µM ([1]; read-out: Antiglycation Activity % Inhibition): 90% | IC50 ([1]; read-out: Antiglycation Activity IC50 ± SEM): 67.2 ± 0.004 µM | cytotoxicity [2]: 1.5% | inhibition at 24 µM ([3]; Rattus norvegicus, Hepatocyte, 24 h, compound 24 μM, co-incubated with AGEs 200 μg/mL, 24 hours, read-out: Percentage Inhibition (growth inhibition of hepatocytes)): 12% | inhibition at 33 µM ([3]; Rattus norvegicus, Hepatocyte, 24 h, compound 33 μM, co-incubated with AGEs 200 μg/mL, 24 hours, read-out: Percentage Inhibition (growth inhibition of hepatocytes)): 18.5% | inhibition at 49 µM ([3]; Rattus norvegicus, Hepatocyte, 24 h, compound 49 μM, co-incubated with AGEs 200 μg/mL, 24 hours, read-out: Percentage Inhibition (growth inhibition of hepatocytes)): 18.8% | Percentage Inhibition (growth inhibition of hepatocytes) ([3]; compound 24 μM, co-incubated with AGEs 200 μg/mL, 24 hours, 24 µM): 12.3% | Absorbance (Average) [3, 5]: 1.15 | cytotoxic effect of the AGEs on the hepatocytes in presence of compound (in words) ([3]; compound 33 μM, AGEs 200 μg/mL): no cytotoxic effect | Absorbance (Average) [3, 6]: 1.09 | reducing the toxic effects of the AGEs on the hepatocytes proliferation (in words) ([3]; compound 49 μM, AGEs 200 μg/mL): safe and effective | Absorbance (Average) [3, 7]: 1.08 | inhibition at 24 µM ([4]; Rattus norvegicus, Hepatocyte, compound 24 μM, co-incubated with AGEs 200 μg/mL, 24 hours, read-out: Percentage Inhibition of AGE-induced intracellular ROS generation): 93.4% | inhibition at 33 µM ([4]; Rattus norvegicus, Hepatocyte, compound 33 μM, co-incubated with AGEs 200 μg/mL, 24 hours, read-out: Percentage Inhibition of AGE-induced intracellular ROS generation): 86.9% | inhibition at 49 µM ([4]; Rattus norvegicus, Hepatocyte, compound 49 μM, co-incubated with AGEs 200 μg/mL, 24 hours, read-out: Percentage Inhibition of AGE-induced intracellular ROS generation): 63.2% | Fluorescence (Average) [4, 5]: 90.6 | Fluorescence (Average) [4, 6]: 101.2 | inhibitory influence on the intracellular generation of ROS (in words) ([4]; compound 49 μM, AGE 200 μg/mL): moderate inhibitory influence | Fluorescence (Average) [4, 7]: 139.5

Source: patent publication US9381182B2, “Anthranilic acid derivatives: novel inhibitors of advanced glycation end-products (AGEs) formation” (priority 2013, dated 2016)
